Assay results published in EP1147095B1, “2, 3, 4, 5-TETRAHYDRO-1H-[1, 4] BENZODIAZEPINE-3-HYDROXAMIC ACIDS AS MATRIX METALLOPROTEINASE INHIBITORS” (Wyeth Holdings Corporation, priority 1999, dated 2000).

Columns and labels:
Assay type in all cases: biochemical
MMP-1 = target: T1, MMP-1 (Homo sapiens, UniProt P03956); test: In Vitro Collagenase Assay; conditions: human recombinant fibroblast collagenase, fluorogenic peptide substrate
T1 construct: human recombinant fibroblast collagenase (truncated, mw=18,828)
T1 sequence (P03956 100-269 limits assumed): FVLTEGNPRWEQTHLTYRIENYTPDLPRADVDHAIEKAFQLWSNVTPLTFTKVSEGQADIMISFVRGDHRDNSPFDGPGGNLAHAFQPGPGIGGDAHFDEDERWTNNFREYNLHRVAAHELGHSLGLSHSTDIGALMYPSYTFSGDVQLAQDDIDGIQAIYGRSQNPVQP
From the text: In Vitro Collagenase Assay
This assay was based on the cleavage of a peptide substrate ((Dnp-Pro-Cha-Gly-Cys(Me)-His-Ala-Lys(NMa)-NH2), available from Peptide International, Inc.) by collagenase releasing the fluorescent NMa group which was quantitated on the fluorometer as disclosed in Bickett et al., "A High Throughput Fluorogenic Substrate for Interstitial Collagenase (MMP-1) and Gelatinase (MMP-9)", Anal. Biochem., 212:58-64, (1993). Dnp quenches the NMa fluorescence in the intact substrate.
The assay was run in HCBC assay buffer (50 mM HEPES, pH 7.0, 5 mM Ca^+2, 0.02% Brij, 0.5% Cysteine), with human recombinant fibroblast collagenase (truncated, mw=18,828, from Wyeth-Ayerst Research, Radnor, PA). The substrate was dissolved in methanol and stored frozen in 1 mM aliquots. Collagenase was stored frozen in buffer in 25 µM aliquots. In conducting the assay, the substrate was dissolved in HCBC buffer to a final concentration of 10 µM and collagenase to a final concentration of 5 nM. The compounds being examined were dissolved in methanol, DMSO, or HCBC. The methanol and DMSO were diluted in HCBC to < 1.0%. The compounds were added to a 96 well plate containing enzyme and the reaction was started by the addition of substrate.
The reaction was read (excitation 340 nm, emission 444 nm) for 10 min. and the increase in fluorescence over time was plotted as a linear line. The slope of the line was calculated representing the reaction rate. The linearity of the reaction rate was confirmed (r^2 >0.85). The mean (x ± sem) of the control rate was calculated and compared for statistical significance (p <0.05) with drug-treated rates using Dunnett's multiple comparison test. Dose-response relationships were generated using multiple doses of drug and IC50 values with 95% CI were estimated using linear regression.

MMP-9 = target: T2, MMP-9 (Homo sapiens, UniProt P14780); test: In Vitro Gelatinase Assay; conditions: human neutrophil gelatinase B, thiopeptide substrate
T2 construct: from tissue; host or cells: human neutrophils
T2 sequence (P14780 94-707): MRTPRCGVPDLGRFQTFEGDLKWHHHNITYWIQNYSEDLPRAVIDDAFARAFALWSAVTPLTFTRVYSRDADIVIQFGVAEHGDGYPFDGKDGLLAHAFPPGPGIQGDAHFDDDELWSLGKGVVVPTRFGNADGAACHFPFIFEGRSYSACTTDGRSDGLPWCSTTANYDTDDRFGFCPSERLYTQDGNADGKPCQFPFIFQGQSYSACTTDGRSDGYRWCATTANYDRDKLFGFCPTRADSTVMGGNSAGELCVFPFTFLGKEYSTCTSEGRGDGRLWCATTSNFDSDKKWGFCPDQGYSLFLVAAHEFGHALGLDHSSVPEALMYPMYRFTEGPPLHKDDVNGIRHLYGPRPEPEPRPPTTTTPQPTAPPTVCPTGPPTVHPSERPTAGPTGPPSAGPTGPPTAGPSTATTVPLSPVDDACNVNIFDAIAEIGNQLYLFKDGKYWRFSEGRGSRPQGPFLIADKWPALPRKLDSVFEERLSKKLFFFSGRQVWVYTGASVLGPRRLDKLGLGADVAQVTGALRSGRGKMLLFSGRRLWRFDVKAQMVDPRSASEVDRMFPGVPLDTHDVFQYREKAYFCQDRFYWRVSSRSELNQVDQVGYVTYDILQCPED
Method: In Vitro Gelatinase Assay
The assay is based on the cleavage of the thiopeptide substrate ((Ac-Pro-Leu-Gly(2-mercapto-4-methyl-pentanoyl)-Leu-Gly-OEt), available from Bachem Bioscience) by the enzyme gelatinase, releasing the substrate product which reacts colorimetrically with DTNB ((5,5'-dithio-bis(2-nitro-benzoic acid)). This assay is disclosed in Weingarten et al., "Spectrophotometric Assay for Vertebrate Collegenase", Anal. Biochem., 147:437-440, (1985). The enzyme activity is measured by the rate of the color increase.
The thiopeptide substrate was made up fresh as a 20 mM stock in 100% DMSO and the DTNB was dissolved in 100% DMSO as a 100 mM stock and stored in the dark at room temperature. The substrate and the DTNB were diluted together to 1 mM with substrate buffer (50 mM HEPES, pH 7.5, 5 mM CaCl2) before use. The stock of human neutrophil gelatinase B was diluted with assay buffer (50 mM HEPES, pH 7.5, 5 mM CaCl2, 0.02% Brij) to a final concentration of 0.15 nM.
The assay buffer, enzyme, DTNB/substrate (500 µM final concentration) and vehicle or inhibitor were added to a 96 well plate (total reaction volume of 200µl) and the increase in color was monitored spectrophotometrically for 5 minutes at 405 nm on a plate reader.
The increase in OD405 was plotted and the slope of the line was calculated. The slope represents the reaction rate. The linearity of the reaction rate was confirmed (r^2 >0.85) and the mean (x ± sem) of the control rate was calculated and compared for statistical significance (p <0.05) with drug-treated rates using Dunnett's multiple comparison test. Dose-response relationships were generated using multiple doses of drug and IC50 values with 95% CI were estimated using linear regression (IPRED, HTB).

MMP-13 = MMP-13 (Homo sapiens, UniProt P45452); test: MMP-13 inhibition (Table 1, no method described)
TACE = target: T3, TACE (Homo sapiens, UniProt P78536); test: Procedure for Measuring TACE Inhibition; conditions: TACE (Immunex), fluorescent peptidyl substrate
T3 construct: purchased Immunex
T3 sequence (P78536 215-824): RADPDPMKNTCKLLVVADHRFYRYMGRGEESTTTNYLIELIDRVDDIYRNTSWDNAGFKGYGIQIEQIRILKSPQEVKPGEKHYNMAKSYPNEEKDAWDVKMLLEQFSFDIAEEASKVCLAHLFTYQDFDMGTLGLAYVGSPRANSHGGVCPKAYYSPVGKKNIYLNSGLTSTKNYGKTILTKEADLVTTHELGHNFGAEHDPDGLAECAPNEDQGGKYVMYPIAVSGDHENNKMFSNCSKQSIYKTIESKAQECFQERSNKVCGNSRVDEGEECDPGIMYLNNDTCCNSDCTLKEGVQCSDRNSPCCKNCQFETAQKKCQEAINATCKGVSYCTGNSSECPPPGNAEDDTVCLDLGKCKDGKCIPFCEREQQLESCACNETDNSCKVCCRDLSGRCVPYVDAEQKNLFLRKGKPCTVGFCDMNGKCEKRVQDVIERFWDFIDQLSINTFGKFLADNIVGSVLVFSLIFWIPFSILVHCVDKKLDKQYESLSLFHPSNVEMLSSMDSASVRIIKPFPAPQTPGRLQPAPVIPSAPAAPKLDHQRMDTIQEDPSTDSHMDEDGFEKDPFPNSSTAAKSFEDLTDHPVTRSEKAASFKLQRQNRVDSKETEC
Method: The plates were incubated for 10 minutes at room temperature. The reaction was initiated by addition of a fluorescent peptidyl substrate (final concentration 100 µM) to each well with shaking on a shaker for 5 sec. The reaction was read (excitation 340 nm, emission 420 nm) for 10 min. and the increase in fluorescence over time was plotted as a linear line. The slope of the line was calculated and this represents the reaction rate. […] The mean (x±sem) of the control rate was calculated and compared for statistical significance (p<0.05) with drug-treated rates using Dunnett's multiple comparison test.

Compound: 4-(4-But-2-ynyloxybenzene-sulfonyl)-1-methoxyacetyl-2,3,4,5-tetrahydro-1H-[1,4]benzodiazepine-3-carboxylic acid, hydroxyamide [Example 57]
- IC50 (MMP-1): 125 nM
- IC50 (MMP-9): 2 nM
- IC50 (MMP-13): 7 nM
- IC50 (TACE): 33 nM

Compound: 4-(4-[4-Methoxybut-2-ynyloxy]benzenesulfonyl)-1-(3-pyridinylcarbonyl)-2,3,4,5-tetrahydro-1H-[1,4]benzodiazepine-3-carboxylic acid, hydroxyamide [Example 58]
- IC50 (MMP-1): 841 nM
- IC50 (MMP-9): 33 nM
- IC50 (MMP-13): 29 nM
- IC50 (TACE): 10 nM

Compound: CC#CCOc1ccc(S(=O)(=O)N2Cc3ccccc3N(C(C)=O)CC2C(=O)NO)cc1 (centres unmarked) [Example 1, 1-Acetyl-4-(4-but-2-ynyloxbenzenesulfonyl)-2,3,4,5-tetrahydro-1H-[1,4]benzodiazepine-3-carboxylic acid, hydroxyamide]
- IC50 (MMP-1): 835 nM
- IC50 (MMP-9): 228 nM
- IC50 (MMP-13): 77 nM
- IC50 (TACE): 16 nM

Compound: CC#CCOc1ccc(S(=O)(=O)N2Cc3ccccc3N(C(=O)c3ccccc3)CC2C(=O)NO)cc1 (centres unmarked) [Example 3, 1-Benzoyl-4-(4-but-2-ynyloxybenzenesulfonyl)-2,3,4,5-tetrahydro-1H-[1,4]-benzodiazepine-3-carboxylic acid, hydroxyamide]
- IC50 (MMP-1): 165 nM
- IC50 (MMP-9): 36 nM
